# Results reported in patent US20240336588A1, “COMPOSITIONS AND METHODS FOR ANTIOXIDANT AND ANTI-INFLAMMATORY THERAPEUTICS” (AVANTI BIOSCIENCES INC., priority 2021, published 2024).
# pIC50: −log10 of the molar value. Read-outs that look alike come from different tables or passages of the source.
# What was measured:
# DYRK2 = DYRK2 (Homo sapiens (Human), UniProt Q92630); conditions: literature value; cited from earlier work
# [1] = target: DYRK1A (HT-497, 6×His tagged rat truncated DYRK1A isoform X1 residues 1-497) (Rattus norvegicus (Rat), UniProt Q63470); assay: DYRK1A ELISA assay (HT-PRD phosphorylation); format: biochemical; conditions: 100 µM ATP, 5 ng HT-497, 30 min at 30° C.
# Protocol: Compounds of Table 1, above, were examined in vitro for activity against DYRK1A, DYRK1B, DYRK2 via an ELISA assay.
# (§1) DYRK1A assay. […] After blocking, wells were washed extensively with dilution buffer before subjecting to phosphorylation. […] At the end point, wells were washed with ˜350 μl dilution buffer three times to terminate the reaction. […] Each point was run in quadruplicate with DMSO present in all assays at 0.2% final concentration. […] HT-PRD phosphorylation was subsequently determined by the sandwich antibody staining protocol, first with 100 μl mouse mAb 3D3 specific for detecting DYRK1A-phosphorylated PRD (60 min at room temperature) then with 100 μl alkaline phosphatase (AP)-linked anti-mouse secondary antibody (60 min at room temperature), followed by colorimetric reaction with 100 μl PNPP solution (PNPP substrate tablet, Thermo Fisher). […] The readings were then recorded for subsequent IC50 calculation. The DYRK1A assay protocol can also support DYRK1B and DYRK2 phosphorylation reactions in the enzyme concentration-dependent manner; therefore, the method was adapted for measuring the activity of candidate compounds against DYRK1B and DYRK2. For DYRK2, the reactions were performed as described above with 6 ng HT-DYRK2 (6×His tagged full-length human DYRK2 isoform 1). For DYRK1B, the assays were also similarly conducted but with 70 ng GST-DYRK1B (glutathione S-transferase tagged full length human DYRK1B isoform p65) and an extended kinase reaction time of 60 min.
# Dilution factors for both mAb 3D3 and secondary antibody were pre-determined for each batch of antibody to ensure that neither antibody was limiting in the assay.
# (§2) Data transformation, calculation, plotting, curve fitting, and IC 50 calculation were performed in KaleidaGraph (http://www.synergy.com/wordpress_650164087; Mac version 4.1). Data was corrected for background (readings from wells with only PNPP) before subsequent manipulations. […] The resulting residual activity was then plotted against its corresponding inhibitor concentrations in semi-log graph and the plot was fit to the sigmoidal equation, y=a+(b−a)/(1+(x/c)^d), for IC50 calculation.
# [2] = target: DYRK1B (GST tagged full length human DYRK1B isoform p65) (Homo sapiens (Human), UniProt Q9Y463); assay: DYRK1B ELISA assay; format: biochemical; conditions: 70 ng GST-DYRK1B, kinase reaction time 60 min
# Chain of DYRK1B (GST tagged full length human DYRK1B isoform p65) (Q9Y463 other isoform, or with tags, fused parts or gaps): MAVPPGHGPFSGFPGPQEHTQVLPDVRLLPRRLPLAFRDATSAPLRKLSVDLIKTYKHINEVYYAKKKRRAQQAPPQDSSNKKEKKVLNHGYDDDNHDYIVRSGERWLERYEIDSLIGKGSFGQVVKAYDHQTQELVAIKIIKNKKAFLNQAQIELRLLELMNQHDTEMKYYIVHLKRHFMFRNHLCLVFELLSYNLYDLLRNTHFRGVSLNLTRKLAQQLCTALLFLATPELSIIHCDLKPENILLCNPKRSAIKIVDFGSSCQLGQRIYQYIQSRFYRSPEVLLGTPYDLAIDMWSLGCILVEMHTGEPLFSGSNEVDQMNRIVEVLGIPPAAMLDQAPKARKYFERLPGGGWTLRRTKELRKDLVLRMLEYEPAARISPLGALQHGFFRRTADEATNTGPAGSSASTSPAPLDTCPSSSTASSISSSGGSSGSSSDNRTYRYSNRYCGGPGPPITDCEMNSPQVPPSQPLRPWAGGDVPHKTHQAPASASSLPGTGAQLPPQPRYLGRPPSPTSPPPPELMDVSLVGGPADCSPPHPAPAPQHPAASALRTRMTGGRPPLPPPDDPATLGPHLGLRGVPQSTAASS
# Protocol: as §1, §2
# Compounds of Table 1, above, were examined in vitro for activity against DYRK1B, via an ELISA assay.
# [3] = system: MOG35-55-induced chronic progressive Experimental Autoimmune Encephalomyelitis (EAE); assay: MOG35-55-induced murine model of chronic progressive EAE; format: in vivo, mice
# Excerpt: Compound 40 of Table 1 was examined for application in neurodegenerative disorders using a MOG35-55-induced murine model of chronic progressive Experimental Autoimmune Encephalomyelitis (EAE), an inflammation model predictive for multiple sclerosis (MS).
# Without being bound by theory, the present inventors note that compound 40 could have a peripheral immunomodulation effect and an overall neuroprotective effect, which could have advantageous implications for the treatment of neurodegenerative disorders like Alzheimer's disease and Multiple Sclerosis.
# COX1 = COX1 (Homo sapiens (Human), UniProt P23219); assay: Eurofins safetyscreen87 panel; format: biochemical
# Chain of COX1 (P23219 24-599): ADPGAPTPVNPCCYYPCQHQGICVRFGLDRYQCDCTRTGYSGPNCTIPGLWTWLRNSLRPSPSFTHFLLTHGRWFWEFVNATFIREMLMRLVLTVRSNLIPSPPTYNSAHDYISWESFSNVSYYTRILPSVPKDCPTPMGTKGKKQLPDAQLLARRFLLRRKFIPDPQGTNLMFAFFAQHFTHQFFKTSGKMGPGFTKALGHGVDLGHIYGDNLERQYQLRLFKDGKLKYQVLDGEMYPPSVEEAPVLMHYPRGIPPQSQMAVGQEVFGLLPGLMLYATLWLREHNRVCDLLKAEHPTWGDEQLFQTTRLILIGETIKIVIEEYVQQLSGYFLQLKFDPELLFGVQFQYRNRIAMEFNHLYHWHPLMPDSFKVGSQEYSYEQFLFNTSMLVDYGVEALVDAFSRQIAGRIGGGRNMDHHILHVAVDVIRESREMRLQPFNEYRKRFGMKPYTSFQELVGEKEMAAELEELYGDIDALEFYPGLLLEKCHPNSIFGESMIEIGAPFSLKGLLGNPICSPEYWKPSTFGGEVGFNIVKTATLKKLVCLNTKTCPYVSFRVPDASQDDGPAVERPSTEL
# COX2 = COX2 (Homo sapiens (Human), UniProt P35354); assay: Eurofins safetyscreen87 panel; format: biochemical
# Chain of COX2 (P35354 18-604): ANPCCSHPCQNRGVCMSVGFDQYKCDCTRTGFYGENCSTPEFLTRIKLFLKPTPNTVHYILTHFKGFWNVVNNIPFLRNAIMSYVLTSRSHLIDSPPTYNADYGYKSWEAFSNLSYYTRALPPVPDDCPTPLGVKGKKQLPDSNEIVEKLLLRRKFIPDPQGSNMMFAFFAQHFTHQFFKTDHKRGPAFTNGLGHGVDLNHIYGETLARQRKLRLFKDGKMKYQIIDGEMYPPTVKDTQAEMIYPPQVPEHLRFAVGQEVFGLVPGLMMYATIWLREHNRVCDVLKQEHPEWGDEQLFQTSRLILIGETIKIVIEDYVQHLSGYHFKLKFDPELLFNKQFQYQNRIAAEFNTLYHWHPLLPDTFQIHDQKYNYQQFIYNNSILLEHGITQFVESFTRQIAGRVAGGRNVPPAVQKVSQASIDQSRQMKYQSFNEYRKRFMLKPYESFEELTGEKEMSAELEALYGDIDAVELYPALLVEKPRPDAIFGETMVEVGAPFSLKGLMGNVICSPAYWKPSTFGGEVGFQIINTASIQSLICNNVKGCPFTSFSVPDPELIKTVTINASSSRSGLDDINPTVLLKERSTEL
# PDE3A = PDE3A (Homo sapiens (Human), UniProt Q14432); assay: Eurofins safetyscreen87 panel; format: biochemical
# Chain of PDE3A (Q14432 whole entry): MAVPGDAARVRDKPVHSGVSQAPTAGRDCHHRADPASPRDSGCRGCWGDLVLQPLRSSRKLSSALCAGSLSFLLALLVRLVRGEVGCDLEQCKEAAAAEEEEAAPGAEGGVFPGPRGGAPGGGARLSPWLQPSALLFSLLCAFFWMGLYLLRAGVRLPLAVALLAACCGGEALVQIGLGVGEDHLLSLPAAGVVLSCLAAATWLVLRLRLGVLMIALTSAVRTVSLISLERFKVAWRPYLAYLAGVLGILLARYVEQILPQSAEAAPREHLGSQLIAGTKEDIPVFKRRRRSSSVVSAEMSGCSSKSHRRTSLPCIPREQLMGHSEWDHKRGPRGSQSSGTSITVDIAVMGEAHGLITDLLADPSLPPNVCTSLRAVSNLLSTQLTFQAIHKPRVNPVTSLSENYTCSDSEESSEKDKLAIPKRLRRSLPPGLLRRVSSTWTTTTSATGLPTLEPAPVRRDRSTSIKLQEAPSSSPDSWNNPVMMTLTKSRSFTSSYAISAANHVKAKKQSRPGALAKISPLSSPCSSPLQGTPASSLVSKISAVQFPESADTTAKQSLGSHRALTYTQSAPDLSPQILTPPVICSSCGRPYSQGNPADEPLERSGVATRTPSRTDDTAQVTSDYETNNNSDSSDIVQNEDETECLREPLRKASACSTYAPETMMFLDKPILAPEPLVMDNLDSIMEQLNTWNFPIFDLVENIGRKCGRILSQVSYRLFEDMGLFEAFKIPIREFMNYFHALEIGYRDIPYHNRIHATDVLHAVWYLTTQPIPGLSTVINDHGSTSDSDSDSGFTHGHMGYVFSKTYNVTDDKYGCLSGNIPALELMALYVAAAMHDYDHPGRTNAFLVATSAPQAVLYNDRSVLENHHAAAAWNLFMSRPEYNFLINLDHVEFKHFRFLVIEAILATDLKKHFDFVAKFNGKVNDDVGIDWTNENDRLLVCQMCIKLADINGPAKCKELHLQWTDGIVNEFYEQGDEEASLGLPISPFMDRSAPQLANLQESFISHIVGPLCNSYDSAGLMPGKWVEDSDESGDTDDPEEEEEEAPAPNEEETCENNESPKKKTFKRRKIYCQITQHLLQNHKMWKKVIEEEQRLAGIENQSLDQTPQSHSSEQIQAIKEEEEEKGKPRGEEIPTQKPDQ
# Potassium channel hERG = Potassium channel hERG (Homo sapiens (Human), UniProt Q12809); assay: Eurofins safetyscreen87 panel; format: binding; conditions: c=10 μM
# Chain of Potassium channel hERG (Q12809 whole entry): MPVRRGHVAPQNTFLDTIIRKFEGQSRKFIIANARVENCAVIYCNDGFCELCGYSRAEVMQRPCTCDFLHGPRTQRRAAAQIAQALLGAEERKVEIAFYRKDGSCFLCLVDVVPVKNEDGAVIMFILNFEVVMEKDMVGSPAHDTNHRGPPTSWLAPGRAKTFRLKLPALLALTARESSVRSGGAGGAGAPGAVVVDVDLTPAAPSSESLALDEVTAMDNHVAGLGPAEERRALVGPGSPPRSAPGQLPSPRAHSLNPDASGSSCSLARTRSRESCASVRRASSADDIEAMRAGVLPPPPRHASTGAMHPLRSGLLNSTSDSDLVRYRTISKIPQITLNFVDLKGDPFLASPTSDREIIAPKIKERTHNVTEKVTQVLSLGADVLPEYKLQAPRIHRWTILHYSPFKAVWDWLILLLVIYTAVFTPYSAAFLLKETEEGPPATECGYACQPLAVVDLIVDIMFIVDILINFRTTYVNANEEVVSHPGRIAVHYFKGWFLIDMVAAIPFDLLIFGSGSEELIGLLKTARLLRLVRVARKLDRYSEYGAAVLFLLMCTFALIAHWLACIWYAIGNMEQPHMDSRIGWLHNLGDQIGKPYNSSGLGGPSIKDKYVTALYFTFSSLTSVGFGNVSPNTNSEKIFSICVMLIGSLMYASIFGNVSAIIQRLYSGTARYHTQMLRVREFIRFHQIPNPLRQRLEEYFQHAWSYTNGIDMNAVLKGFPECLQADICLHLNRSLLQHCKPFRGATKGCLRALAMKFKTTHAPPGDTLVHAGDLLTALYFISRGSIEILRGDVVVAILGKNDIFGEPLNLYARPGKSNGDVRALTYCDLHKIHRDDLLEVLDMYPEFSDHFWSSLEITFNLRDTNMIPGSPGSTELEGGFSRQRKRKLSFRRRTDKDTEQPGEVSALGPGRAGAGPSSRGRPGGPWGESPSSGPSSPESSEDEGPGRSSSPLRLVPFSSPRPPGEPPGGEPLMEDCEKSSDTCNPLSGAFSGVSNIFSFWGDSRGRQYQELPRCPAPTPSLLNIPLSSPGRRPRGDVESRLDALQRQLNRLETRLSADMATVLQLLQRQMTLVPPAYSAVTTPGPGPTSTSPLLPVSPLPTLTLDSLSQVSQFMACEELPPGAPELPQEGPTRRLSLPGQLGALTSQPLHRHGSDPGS
# 87 different targets = assay: Eurofins safetyscreen87 panel (whole panel)
# [4] = system: 12 transporter proteins including BCRP and PgP; assay: Transporter substrate test (Eurofins panels); format: in vitro ADME
# 8 major CYP enzymes = assay: CYP inhibition in human liver microsomes; format: in vitro ADME; conditions: c=10 μM
# Protocol: Compound 68 was also tested for its inhibitor activity against the 8 major CYP enzymes in human liver microsomes.
# [5] = system: Salmonella typhimurium (TA98, TA100, TA97a, and TA1535); assay: mini-Ames assay; conditions: 5 concentrations up to 100 μM, absence or presence of rat liver S9
# Protocol: The compound dissolved in DMSO was evaluated at 5 concentrations up to […] in the absence or presence of metabolic activation (rat liver S9).
# [6] = system: lipopolysaccharide (LPS)-induced TNF-α model; assay: Lipopolysaccharide (LPS)-induced TNF-α model; format: in vivo, C57BL/6 mice; conditions: intranasally 3, 10, 30 mg/kg and orally 30 mg/kg, 5 days
# Protocol: 12-week-old male C57BL/6 mice were used.
# On day 5, one hour after LPS treatment, all animals were euthanized via CO2. The plasma, hippocampus and cortex were collected and immediately stored at liquid nitrogen and transferred to −80° C. Tissues were used for ELISA and Western Blot analysis to determine levels of TNF-α and pTau.
# [7] = mouse, in vivo
# [8] = male, C57BL/6, mouse, in vivo
# in vivo [9] = conditions: male, C57BL/6, mouse
# in vivo [10] = conditions: male, C57BL/6, mouse; remark: listed apart in the source
# [11] = twice daily intranasal administration, 15 mg/kg
# [12] = inhaled or intranasal, 30 mg/kg
# [13] = inhaled or intranasal, 10 mg/kg
# Chain of DYRK2 (Q92630 whole entry, species assumed, the tested form may be a part, canonical isoform): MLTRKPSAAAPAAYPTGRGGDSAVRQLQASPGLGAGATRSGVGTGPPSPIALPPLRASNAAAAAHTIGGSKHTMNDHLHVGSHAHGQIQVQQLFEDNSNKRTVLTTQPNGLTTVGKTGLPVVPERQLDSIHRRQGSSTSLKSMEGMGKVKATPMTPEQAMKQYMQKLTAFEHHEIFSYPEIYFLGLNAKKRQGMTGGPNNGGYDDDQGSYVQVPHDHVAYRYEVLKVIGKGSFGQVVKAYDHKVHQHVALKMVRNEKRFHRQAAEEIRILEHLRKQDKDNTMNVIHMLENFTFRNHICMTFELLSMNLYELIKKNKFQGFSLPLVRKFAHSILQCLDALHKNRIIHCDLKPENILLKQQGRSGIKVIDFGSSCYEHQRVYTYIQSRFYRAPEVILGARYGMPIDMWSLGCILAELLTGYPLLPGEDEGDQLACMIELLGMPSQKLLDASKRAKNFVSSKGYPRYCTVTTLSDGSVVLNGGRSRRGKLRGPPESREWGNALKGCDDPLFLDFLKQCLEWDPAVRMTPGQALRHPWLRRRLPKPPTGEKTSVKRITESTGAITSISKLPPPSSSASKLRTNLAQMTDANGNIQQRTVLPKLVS
smiles,measurement,setting,value
COc1cc(N2CCN(C)CC2)ccc1Nc1nccc(-c2cn(C)c3cnccc23)n1 [AZ-191],pIC50,DYRK2,5.72
"O=C(O[C@@H]1Cc2c(O)cc(O)cc2O[C@H]1c1cc(O)c(O)c(O)c1)c1cc(O)c(O)c(O)c1F [Compound 40, (2S,3R)-5,7-dihydroxy-2-(3,4,5-trihydroxyphenyl)chroman-3-yl 2-fluoro-3,4,5-trihydroxybenzoate]",pIC50,[1],> 7.00
same,pIC50,[2],> 7.00
same,axons and myelin during chronic EAE,"[3]; Bielschowsky silver staining (neurofilaments), LFB staining (myelin)",preserved axons and myelin
same,"spinal cord inflammation, hematoxylin and eosin staining",[3]; compared to the vehicle control group,significant spinal cord inflammation reductions
same,"lesion severity scores, histopathology of spinal cord section","[3]; treated intranasally, compared to the other treatment groups, FIG. 2",significant (p<0.001) reductions in lesion severity scores
same,reduction of brain IFNγ,[3]; [11],90%
same,reduction of brain IL-17,[3]; [11],79%
same,effect on disease course (EAE),"[3]; twice daily intranasal administration, 15 mg/kg, FIG. 1",reversal of the disease
"O=C(O[C@@H]1Cc2c(O)cc(O)cc2O[C@H]1c1cc(O)c(O)c(O)c1)c1c(F)c(O)c(O)c(O)c1F [Compound 51, (2S,3R)-5,7-dihydroxy-2-(3,4,5-trihydroxyphenyl)chroman-3-yl 2,6-difluoro-3,4,5-trihydroxybenzoate]",pIC50,[1],> 7.00
same,pIC50,[2],> 7.00
"O=C(O[C@@H]1Cc2c(O)cc(O)cc2O[C@H]1c1ccc(O)c(O)c1)c1cc(O)c(O)c(O)c1F [Compound 55, (2S,3R)-2-(3,4-dihydroxyphenyl)-5,7-dihydroxychroman-3-yl 2-fluoro-3,4,5-trihydroxybenzoate]",pIC50,[1],> 7.00
same,pIC50,[2],< 7.00
"COc1cc(C(=O)O[C@@H]2Cc3c(O)cc(O)cc3O[C@H]2c2cc(O)c(O)c(O)c2)c(F)c(O)c1O [Compound 68, (2S,3R)-5,7-dihydroxy-2-(3,4,5-trihydroxyphenyl)chroman-3-yl 2-fluoro-3,4-dihydroxy-5-methoxybenzoate]",pIC50,[1],> 7.00
same,pIC50,[2],> 7.00
same,pIC50,COX1,5.92
same,pIC50,COX2,6.74
same,pIC50,PDE3A,6.42
same,activity against the Potassium channel hERG,Potassium channel hERG,No activity
same,activity against other ion channels,87 different targets; c=10 μM,No activity
same,profile over 87 different targets,"87 different targets; screened at c=10 µM, significant activity only against COX1, COX2, PDE3A",very clean profile
same,substrate of transporter proteins,[4],not a substrate of any of them
same,inhibition of the CYP enzymes,8 major CYP enzymes,no inhibition
same,cytotoxicity in bacteria,[5],No evidence of cytotoxicity
same,mutagenicity,[5],not mutagenic
same,lipopolysaccharide-induced expression of TNF-alpha,"[6]; hippocampus and plasma, ELISA, FIGS. 3-4",inhibit
same,lipopolysaccharide-induced pTau,"[6]; hippocampus, Western Blot (AT8 antibody), FIG. 5",inhibit
same,T1/2,[7]; inhaled or intranasal,1.06 H
same,T1/2,[7]; [12],1.97 H
same,T1/2,"[7]; iv, 5 mg/kg",1.04 H
same,T1/2,"[7]; po, 30 mg/kg",1.27 H
same,time measurable in whole-brain homogenate after dosing,[8],4 h
same,CL/F,in vivo [9]; 30 mg/kg,842 mL/min/kg
same,Vd/F,in vivo [9]; 30 mg/kg,17.1 L/kg
same,AUC(0-inf),in vivo [9]; [13],716 ng·h/mL
same,AUC(0-t),in vivo [9]; [13],702 ng·h/mL
same,CL/F,in vivo [9]; [13],240 mL/min/kg
same,Cmax,in vivo [9]; [13],489 ng/mL
same,Vd/F,in vivo [9]; [13],41.7 L/kg
same,bioavailability,in vivo [9]; [13],> 100%
same,AUC(0-inf),in vivo [9]; [12],4990 ng·h/mL
same,AUC(0-t),in vivo [9]; [12],4950 ng·h/mL
same,Cmax,in vivo [9]; [12],3140 ng/mL
same,bioavailability,in vivo [9]; [12],> 100%
same,AUC(0-inf),"in vivo [9]; iv, 5 mg/kg",348 ng·h/mL
same,AUC(0-t),"in vivo [9]; iv, 5 mg/kg",334 ng·h/mL
same,Cmax,"in vivo [9]; iv, 5 mg/kg",257 ng/mL
same,Vd,"in vivo [9]; iv, 5 mg/kg",22 L/kg
same,clearance,"in vivo [9]; iv, 5 mg/kg",240 mL/min/kg
same,AUC(0-inf),"in vivo [9]; po, 30 mg/kg",92 ng·h/mL
same,AUC(0-t),"in vivo [9]; po, 30 mg/kg",78 ng·h/mL
same,CL/F,"in vivo [9]; po, 30 mg/kg",100 mL/min/kg
same,Cmax,"in vivo [9]; po, 30 mg/kg",41 ng/mL
same,Vd/F,"in vivo [9]; po, 30 mg/kg",602 L/kg
same,bioavailability,"in vivo [9]; po, 30 mg/kg",4%
same,concentration at 1 h,in vivo [10],120 ng/g
